In one assay the target is T1, PIM1 (Homo sapiens, UniProt P11309).
T1 construct: made in house
In words: Pim-1 kinase enzymatic assay (Caliper LC3000, FAM-Pimtide substrate). The note with it: 20 pM PIM1, 10 μM ATP, 90 minutes; read-out: PIM1 LC3K (Ki). It counts as biochemical. As for the experimental part:
(§1) Reaction Buffer contained 10 mM HEPES, pH 7.2, 10 mM MgCl2, 0.01% Tween 20, 2 mM DTT.
(§2) PIM reactions were carried out in a final volume of 10 μL per well in a 384-well plate. […] The separation of product and substrate was optimized by choosing voltages and pressure using Caliper's Optimizer software (Hopkinton, Mass.). The separation conditions used a downstream voltage of −500V, an upstream voltage of −2150V, and a screening pressure of −1.2 psi. […] Substrate conversion was calculated from the electrophoregram using HTS Well Analyzer software (Caliper Life Sciences, Hopkinton, Mass.). Ki values for the test compound were calculated.

The target in a further assay is T2, PIM2 (Homo sapiens, UniProt Q9P1W9).
T2 construct: made in house
T2 sequence (Q9P1W9 whole entry): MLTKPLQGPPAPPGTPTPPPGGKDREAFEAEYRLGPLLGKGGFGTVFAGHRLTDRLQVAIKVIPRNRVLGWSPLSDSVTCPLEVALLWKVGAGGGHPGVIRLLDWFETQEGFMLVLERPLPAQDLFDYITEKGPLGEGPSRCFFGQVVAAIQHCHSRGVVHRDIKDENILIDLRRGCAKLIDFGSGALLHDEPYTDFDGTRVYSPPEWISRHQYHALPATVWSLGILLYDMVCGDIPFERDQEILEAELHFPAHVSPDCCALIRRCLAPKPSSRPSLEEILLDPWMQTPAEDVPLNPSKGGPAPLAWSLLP
In words: Pim-2 kinase enzymatic assay (Caliper LC3000, FAM-Pimtide substrate). The conditions noted are these: 50 pM PIM2, 10 μM ATP, 90 minutes; read-out: PIM2 LC3K (Ki). It counts as biochemical. On the procedure:
as §1, §2

The target of another assay is T3, PIM3 (Homo sapiens, UniProt Q86V86).
T3 construct: made in house
Put plainly: Pim-3 kinase enzymatic assay (Caliper LC3000, FAM-Pimtide substrate). The conditions noted are these: 55 pM PIM3, 10 μM ATP, 90 minutes; read-out: PIM3 LC3K (Ki). It counts as biochemical. On the procedure: as §1, §2

Another assay concerns the target BaF3 PIM1 cells (Homo sapiens, UniProt P11309). Put plainly: BaF3 PIM1 cell proliferation (Cell Titer Glo). It counts as cell-based. The conditions noted are these: incubated overnight; read-out: Prolif BaF3_PIM1 (IC50). As for the experimental part:
(§3) BaF3 parental line was obtained from the DSMZ repository. BaF3 lines transfected with PIM1 or PIM2 were generated. Mouse IL-3 was purchased from R&D Systems. G418 was purchased from Clontech. Media for BaF3 parental line contained RPMI, 10% FBS, 2 mM L-Glutamine, 2 ng/mL mIL-3. Media for BaF3 PIM1 & 2 lines contained RPMI, 10% FBS, 2 mM L-Glutamine, […]. Media for MM1.S line contained RPMI, 10% FBS, 2 mM L-Glutamine.
(§4) BaF3 parental cells, BaF3 PIM1 cells, BaF3 PIM2 cells, and MM1.S cells were seeded at 2 k/well, 5 k/well, 5 k/well, and 10 k/well respectively, in a 384-well plate, at 45 μL/well. Test compound was added at 5 μL/well. BaF3 cells (parental and transfected) were incubated overnight, while MM1.S cells were incubated for 72 hours at 37° C., 5% CO2. Cell Titer Glo Reagent (Promega) was added at 50 μL/well, the plates were incubated for 30 minutes, and their luminescence read on an HT Analyst. IC50/EC50 values for the test compound were calculated.
A general note: In ATP-based viability assays light output follows the ATP content of the culture.

The target in a further assay is BaF3 PIM2 cells (Homo sapiens, UniProt Q9P1W9). Put plainly: BaF3 PIM2 cell proliferation (Cell Titer Glo). The conditions noted are these: incubated overnight; read-out: Prolif BaF3_PIM2 (IC50). The assay is classed as cell-based. As for the experimental part:
as §3, §4

A further assay concerns MM1.S cells. Put plainly: MM1.S cell proliferation, 72 hours (Cell Titer Glo). The assay is classed as cell-based. The conditions noted are these: Homo sapiens, 72 hours, read-out: Prolif MM1S ATP (EC50). As for the experimental part:
as §3, §4

pEC50, pKi: −log10 of the molar value. A value given as a limit tells only on which side of the number the result lay.

Sequence of BaF3 PIM1 cells (P11309 whole entry, change not shown): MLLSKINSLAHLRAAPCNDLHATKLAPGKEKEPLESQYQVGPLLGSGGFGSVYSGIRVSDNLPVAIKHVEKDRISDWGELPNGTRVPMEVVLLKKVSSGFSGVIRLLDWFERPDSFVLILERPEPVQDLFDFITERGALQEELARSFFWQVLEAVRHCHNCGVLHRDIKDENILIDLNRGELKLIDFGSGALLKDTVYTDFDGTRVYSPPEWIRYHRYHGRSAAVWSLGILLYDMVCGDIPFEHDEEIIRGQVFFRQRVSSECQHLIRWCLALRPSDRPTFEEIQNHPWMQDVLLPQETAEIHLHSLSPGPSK
T1 sequence (P11309 whole entry): as the sequence (P11309 whole entry, change not shown) above
Sequence of BaF3 PIM2 cells (Q9P1W9 whole entry, change not shown): as the sequence (Q9P1W9 whole entry) above

By pKi is commonly meant the Ki on a negative log10 scale, so that one unit is a factor of ten. The term pEC50 denotes the negative decadic logarithm of the EC50, by convention in mol/L. Take `COc1cc(F)c(-c2nc(C(=O)Nc3cnccc3N3CCC[C@H](N)C3)c(N)s2)c(F)c1` [Example 34, (S)-5-amino-N-(4-(3-aminopiperidin-1-yl)pyridin-3-yl)-2-(2,6-difluoro-4-methoxyphenyl)thiazole-4-carboxamide]: the pKi was 10.92 at PIM1, 10.02 at PIM2 and 10.66 at PIM3. In addition, the GI50 is 19.1 nM on BaF3 PIM1 cells and greater than 2500 nM on BaF3 PIM2 cells. In addition, the pEC50 in the assay with MM1.S cells is 7.25.

For `Nc1sc(-c2cc(Br)ccc2F)nc1C(=O)Nc1cnccc1N1CCC[C@H](N)C1` [Example 4, (S)-5-amino-N-(4-(3-aminopiperidin-1-yl)pyridin-3-yl)-2-(5-bromo-2-fluorophenyl)thiazole-4-carboxamide], the pKi at PIM1 is 10.64; at PIM2, 9.81; on PIM3, 10.59. The GI50 on BaF3 PIM1 cells was 55.8 nM; at BaF3 PIM2 cells it was greater than 2500 nM. Moreover, the pEC50 in the assay with MM1.S cells was 6.80.

Take `Nc1sc(-c2ccc3cccnc3c2)nc1C(=O)Nc1cnccc1N1CCC[C@H](N)C1` [Example 44, (S)-5-amino-N-(4-(3-aminopiperidin-1-yl)pyridin-3-yl)-2-(quinolin-7-yl)thiazole-4-carboxamide]: the pKi on PIM1 was 10.49; on PIM2 it was 9.29; on PIM3, 9.95. Besides, the results for the GI50 on BaF3 PIM1 cells and at BaF3 PIM2 cells were 38.1 nM and 1900 nM, respectively. Besides, the pEC50 in the assay on MM1.S cells was 6.72.

`Nc1sc(-c2c(F)cccc2F)nc1C(=O)Nc1cnccc1Cl` [Example 17, 5-amino-N-(4-chloropyridin-3-yl)-2-(2,6-difluorophenyl)thiazole-4-carboxamide]: the pKi was 7.85 at PIM1, 7.12 on PIM2 and 8.17 at PIM3. Also, the GI50 on BaF3 PIM1 cells and at BaF3 PIM2 cells was greater than 20000 nM in each case. The pEC50 in the assay on MM1.S cells was less than 4.70.

Take `CN(C)C(=O)c1ccc(F)c(-c2nc(C(=O)Nc3cnccc3N3CCC[C@H](N)C3)c(N)s2)c1` [Example 18, (S)-5-amino-N-(4-(3-aminopiperidin-1-yl)pyridin-3-yl)-2-(5-(dimethylcarbamoyl)-2-fluorophenyl)thiazole-4-carboxamide]: the values for the pKi on PIM1, at PIM2 and on PIM3 were 10.02, 9.22 and 10.48, respectively. Also, the GI50 at BaF3 PIM1 cells is 257 nM; at BaF3 PIM2 cells, 12300 nM. Also, the pEC50 in the assay with MM1.S cells was 6.12.

On to `Cc1ccccc1-c1nc(C(=O)Nc2cnccc2N2CCC[C@H](N)C2)c(N)s1` [Example 40, (S)-5-amino-N-(4-(3-aminopiperidin-1-yl)pyridin-3-yl)-2-o-tolylthiazole-4-carboxamide], for which the results for the pKi at PIM1, at PIM2 and on PIM3 were 9.89, 9.14 and 10.43, respectively. The GI50 amounted to 164 nM at BaF3 PIM1 cells and 6500 nM at BaF3 PIM2 cells. In the assay with MM1.S cells, the pEC50 is 5.60.

As for `Nc1sc(-c2c(Cl)cccc2Cl)nc1C(=O)Nc1cnccc1N1CCC[C@H](N)C1` [Example 58, (S)-5-amino-N-(4-(3-aminopiperidin-1-yl)pyridin-3-yl)-2-(2,6-dichlorophenyl)thiazole-4-carboxamide], the pKi at PIM1 is 9.05; at PIM2, 8.73; on PIM3, 9.26. Also, the GI50 on BaF3 PIM1 cells was found to be 232 nM; at BaF3 PIM2 cells, 6500 nM. In addition, the negative logarithm of the EC50 (pEC50) in the assay with MM1.S cells is 5.51.

Regarding `Cc1cccc(C)c1-c1nc(C(=O)Nc2cnccc2N2CCC[C@H](N)C2)c(N)s1` [Example 54, (S)-5-amino-N-(4-(3-aminopiperidin-1-yl)pyridin-3-yl)-2-(2,6-dimethylphenyl)thiazole-4-carboxamide], the figures for the pKi on PIM1, at PIM2 and on PIM3 were 7.57, 7.14 and 7.64, respectively. The GI50 at BaF3 PIM1 cells is 7800 nM; on BaF3 PIM2 cells it was greater than 20000 nM. Moreover, the pEC50 with MM1.S cells was 4.80.

In the case of `Nc1sc(-c2cc[nH]n2)nc1C(=O)Nc1cnccc1N1CCC[C@H](N)C1` [Example 51, (S)-5-amino-N-(4-(3-aminopiperidin-1-yl)pyridin-3-yl)-2-(1H-pyrazol-3-yl)thiazole-4-carboxamide], the pKi at PIM1 is 10.09; on PIM2, 9.58; at PIM3, 10.39. In addition, the figures for the GI50 at BaF3 PIM1 cells and on BaF3 PIM2 cells were 197 nM and greater than 20000 nM, respectively. For the same compound, the pEC50 with MM1.S cells was 6.81.

With `COc1ccccc1-c1nc(C(=O)Nc2cnccc2N2CCC[C@H](N)C2)c(N)s1` [Example 39, (S)-5-amino-N-(4-(3-aminopiperidin-1-yl)pyridin-3-yl)-2-(2-methoxyphenyl)thiazole-4-carboxamide], the pKi at PIM1 was 9.51; at PIM2 it was 8.77; at PIM3 it was 9.84. For the same compound, the GI50 at BaF3 PIM1 cells is 375 nM; on BaF3 PIM2 cells, 5100 nM. The pEC50 in the assay with MM1.S cells is 5.49.

In the case of `Cc1nc(C(=O)Nc2cnccc2N2CCC[C@H](N)C2)c(N)s1` [Example 8, (S)-5-amino-N-(4-(3-aminopiperidin-1-yl)pyridin-3-yl)-2-methylthiazole-4-carboxamide], the pKi was 8.46 on PIM1, 7.79 on PIM2 and 8.02 on PIM3. Besides, the values for the GI50 on BaF3 PIM1 cells and on BaF3 PIM2 cells were 713 nM and greater than 20000 nM, respectively. Besides, the pEC50 in the assay with MM1.S cells was less than 4.70.

As for `CCCOc1ccc(F)c(-c2nc(C(=O)Nc3cnccc3N3CCC[C@H](N)C3)c(N)s2)c1F` [Example 27, (S)-5-amino-N-(4-(3-aminopiperidin-1-yl)pyridin-3-yl)-2-(3-propyloxy-2,6-difluorophenyl)thiazole-4-carboxamide], the figures for the pKi on PIM1, at PIM2 and on PIM3 were 10.40, 9.61 and 10.30, respectively. Besides, the GI50 at BaF3 PIM1 cells turned out to be 75.7 nM; at BaF3 PIM2 cells, 3900 nM. The pEC50 with MM1.S cells was 6.25.

In the case of `Nc1sc(-c2cccnc2)nc1C(=O)Nc1cnccc1N1CCC[C@H](N)C1` [Example 11, (S)-5-amino-N-(4-(3-aminopiperidin-1-yl)pyridin-3-yl)-2-(pyridin-3-yl)thiazole-4-carboxamide], the pKi is 9.30 at PIM1, 9.05 at PIM2 and 9.78 on PIM3. For the same compound, the GI50 on BaF3 PIM1 cells stood at 607 nM; on BaF3 PIM2 cells, 13200 nM. Besides, the pEC50 in the assay on MM1.S cells was 5.04.

As for `Nc1sc(-c2c(F)cccc2F)nc1C(=O)Nc1cnccc1N1CCC[C@H](O)C1` [Example 52, (S)-5-amino-2-(2,6-difluorophenyl)-N-(4-(3-hydroxypiperidin-1-yl)pyridin-3-yl)thiazole-4-carboxamide], the pKi was 10.57 on PIM1, 9.31 at PIM2 and 10.21 at PIM3. The GI50 at BaF3 PIM1 cells was 2200 nM; at BaF3 PIM2 cells, greater than 20000 nM. Further, the pEC50 with MM1.S cells was 5.89.

Turning to `Nc1sc(-c2cnc3ccccn23)nc1C(=O)Nc1cnccc1N1CCC[C@H](N)C1` [Example 57, (S)-5-amino-N-(4-(3-aminopiperidin-1-yl)pyridin-3-yl)-2-(imidazo[1,2-a]pyridin-3-yl)thiazole-4-carboxamide], the negative-log Ki (pKi) on PIM1 was 9.96; at PIM2 it was 8.54; on PIM3, 9.64. For the same compound, the GI50 at BaF3 PIM1 cells is 494 nM; at BaF3 PIM2 cells, greater than 20000 nM. Besides, the pEC50 in the assay with MM1.S cells is 5.29.

As to `CN(C)C(=O)c1ccc(F)c(-c2nc(C(=O)Nc3cnccc3N3CCC[C@H](N)C3)cs2)c1` [Example 47, (S)-N-(4-(3-aminopiperidin-1-yl)pyridin-3-yl)-2-(5-(dimethylcarbamoyl)-2-fluorophenyl)thiazole-4-carboxamide], the pKi at PIM1 is 8.40; at PIM2, 7.22; on PIM3 it was 8.68. The values for the GI50 on BaF3 PIM1 cells and on BaF3 PIM2 cells were 3900 nM and greater than 20000 nM, respectively. Moreover, in the assay with MM1.S cells, the pEC50 is less than 4.70.

`Nc1sc(-c2cccc(Br)c2)nc1C(=O)Nc1cnccc1N1CCC[C@H](N)C1` [Example 6, (S)-5-amino-N-(4-(3-aminopiperidin-1-yl)pyridin-3-yl)-2-(3-bromophenyl)thiazole-4-carboxamide]: the pKi at PIM1 was 10.20; at PIM2, 9.42; on PIM3, 10.49. Moreover, the results for the GI50 on BaF3 PIM1 cells and on BaF3 PIM2 cells were 117 nM and 1400 nM, respectively. The pEC50 in the assay on MM1.S cells is 6.23.
